We go through two molecules from US7794753B2, “Synergistic hepatoprotective composition and a method thereof” (Council of Scientific and Industrial Research, priority 2003, dated 2010).

The conditions of series [1]: After 72 hrs, mostly by urinary excretion; cited from earlier work.
Series [2] relates to restinosis following Angio plasty. As to conditions: animal model, compared with fish oil; cited from earlier work.
Series [3] deals with Paracetamol (APAP) induced hepatic injury. In kind it is in vivo. To be noted: prophylactic. On the procedure: […] Formulation is extremely safe having a therapeutic index of >40. No mortality was recorded up to a dose of 2 g-kg-1 p.o. in mice.
Series [4] relates to paracetamol (APAP) induced hepatic injury. Briefly: Hepatoprotective activity (in vivo) of synergistic formulation and Silymarin against paracetamol (APAP) induced hepatic injury in mice (prophylactic study). To be noted: 50 mg/kg p.o. + APAP. The method, then: All the list materials were administered P.O. routes in a uniform dose level of 50 mg kg-1. Formulation is extremely safe having a therapeutic index of >40. No mortality was recorded up to a dose of 2 g-kg-1 p.o. in mice.

Series [5] has as its system Acetaminophen (APAP) induced hepatic injury. Put plainly: Hepatoprotective activity (in vivo) of TCA and silymarin (Pre-treatment), diethyl-ether plus Acetaminophen (APAP) (prophylactic study). As to conditions: 50 mg/kg p.o. fed at 72 h, 48 h, 24 h, 1 h before diethyl-ether and 1 h after APAP 200 mg/kg i.p. On the set-up: species or system Mice: Swiss albino.

For `C=C1CC[C@@H]2[C@](C)(CO)[C@H](O)CC[C@@]2(C)[C@@H]1C/C=C1/C(=O)OC[C@H]1O` [AP, andrographolide], the excreted in series [1] is about 90%. Also, the “preventing the incidence and severity of restinosis following Angio plasty” value in series [2] is recorded as “twice as effective as fish oil”. In addition, in series [3] (50 mg kg−1 + APAP), the “Hepatic GSH (glutathione)” value is listed as 4.48 ± 0.25 μmole GSH/g liver. In addition, the “Serum TG, percent hepatoprotective activity (in parentheses)” value in series [3] (100 mg kg−1 + APAP) is “(63.00) %”.

As to `CCCCCCCC/C=C/CCCCCCCCCCCCCC(=O)O` [TCA, trans-tetracos-15-enoic acid], the “S. Albumin, percent hepatoprotective activity” value in series [4] turned out to be 56.35%. Moreover, the “Serum Bilirubin, percent hepatoprotective activity” value in series [5] came out at 56.35%.
